For 20 compounds, Ki results are on record in US10071998B2, “Iminothiadiazine dioxides bearing an amine-linked substituent as BACE inhibitors, compositions, and their use” (Merck Sharp & Dohme Corp., priority 2015, dated 2018).

Test [1] addresses Recombinant human soluble BACE-1 catalytic domain (Homo sapiens (Human), UniProt P56817). In words: BACE-1 Ki Assay (BACE-1 HTRF FRET Assay). The class given is biochemical. As to the method:
Assay 1: BACE-1 Ki Assay (BACE-1 HTRF FRET Assay)
The compounds of the invention were assessed for their ability to inhibit BACE-1 using the following assay.
The following reagents were used in this assay. Na^+-Acetate pH 5.0; 1% Brij-35; Glycerol; Dimethyl Sulfoxide (DMSO); Recombinant human soluble BACE-1 catalytic domain (>95% pure); APP Swedish mutant peptide substrate (QSY7-APP^swe-Eu): QSY7-EISEVNLDAEFC-Europium-amide.
A homogeneous time-resolved FRET assay can be used to determine IC50 values for inhibitors of the soluble human BACE-1 catalytic domain. This assay monitors the increase of 620 nm fluorescence that resulted from BACE-1 cleavage of an APPswedish APP^swe mutant peptide FRET substrate (QSY7-EISEVNLDAEFC-Europium-amide). This substrate contains an N-terminal QSY7 moiety that serves as a quencher of the C-terminal Europium fluorophore (620 nm Em). In the absence of enzyme activity, 620 nm fluorescence is low in the assay and increased linearly over 3 hours in the presence of uninhibited BACE-1 enzyme. Inhibition of BACE-1 cleavage of the QSY7-APP^swe-Eu substrate by inhibitors is manifested as a suppression of 620 nm fluorescence.
Varying concentrations of inhibitors at 3× the final desired concentration in a volume of 10 ul are preincubated with purified human BACE-1 catalytic domain (3 nM in 10 μl) for 30 minutes at 30° C. in reaction buffer containing 20 mM Na-Acetate pH 5.0, 10% glycerol, 0.1% Brij-35 and 7.5% DSMO. Reactions are initiated by addition of 10 μl of 600 nM QSY7-APP^swe-Eu substrate (200 nM final) to give a final reaction volume of 30 μl in a 384 well Nunc HTRF plate. The reactions are incubated at 30° C. for 1.5 hours. The 620 nm fluorescence is then read on a Rubystar HTRF plate reader (BMG Labtechnologies) using a […] delay followed by a 400 millisecond acquisition time window. Inhibitor IC50 values are derived from non-linear regression analysis of concentration response curves. Ki values are then calculated from IC50 values using the Cheng-Prusoff equation using a previously determined […] of 8 μM for the QSY7-APP^swe-Eu substrate at BACE-1. The example compounds of the invention were measured in this assay.

For test [2], the target named is purified human autoBACE-2 (Homo sapiens (Human), UniProt Q9Y5Z0). The test can be described thus: BACE-2 Assay (BACE-HTRF assay). The conditions noted are these: Table 1; Ki calculated from IC50 with Cheng-Prusoff equation; read-out: BACE2 Ki. It is filed as biochemical. As for the experimental part:
Inhibitor IC50s, at purified human autoBACE-2 are determined in a time-resolved endpoint proteolysis assay that measures hydrolysis of the QSY7-EISEVNLDAEFC-Eu-amide FRET peptide substrate (BACE-HTRF assay). BACE-mediated hydrolysis of this peptide results in an increase in relative fluorescence (RFU) at 620 nm after excitation with 320 nm light. Inhibitor compounds, prepared at 3× the desired final concentration in 1× BACE assay buffer (20 mM sodium acetate pH 5.0, 10% glycerol, 0.1% Brij-35) supplemented with 7.5% DMSO are pre-incubated with an equal volume of autoBACE-2 enzyme diluted in 1×BACE assay buffer (final enzyme concentration 1 nM) in black 384-well NUNC plates for 30 minutes at 30° C. The assay is initiated by addition of an equal volume of the QSY7-EISEVNLDAEFC-Eu-amide substrate (200 nM final concentration, Km=8 μM […] for autoBACE-2) prepared in 1×BACE assay buffer supplemented with 7.5% DMSO and incubated for 90 minutes at 30° C. DMSO is present at 5% final concentration in the assay. Following laser excitation of sample wells at 320 nm, the fluorescence signal at 620 nm is collected for 400 ms following a 50 μs delay on a RUBYstar HTRF plate reader (BMG Labtechnologies). Raw RFU data is normalized to maximum (1.0 nM BACE/DMSO) and minimum (no enzyme/DMSO) RFU values. IC50 values are determined by nonlinear regression analysis (sigmoidal dose response, variable slope) of percent inhibition data with minimum and maximum values set to 0 and 100 percent respectively. Similar IC50s are obtained when using raw RFU data. The Ki values are calculated from the IC50 using the Cheng-Prusoff equation.

Setting [3] is: Table 3, comparator compounds of WO2011044181, read-out: BACE-1 Ki Nm.
[4] abbreviates: Table 1, Ki calculated from IC50 with Cheng-Prusoff equation, read-out: BACE1 Ki.

Read-outs that look alike come from different tables or passages of the source.

Chain of Recombinant human soluble BACE-1 catalytic domain (P56817 75-416): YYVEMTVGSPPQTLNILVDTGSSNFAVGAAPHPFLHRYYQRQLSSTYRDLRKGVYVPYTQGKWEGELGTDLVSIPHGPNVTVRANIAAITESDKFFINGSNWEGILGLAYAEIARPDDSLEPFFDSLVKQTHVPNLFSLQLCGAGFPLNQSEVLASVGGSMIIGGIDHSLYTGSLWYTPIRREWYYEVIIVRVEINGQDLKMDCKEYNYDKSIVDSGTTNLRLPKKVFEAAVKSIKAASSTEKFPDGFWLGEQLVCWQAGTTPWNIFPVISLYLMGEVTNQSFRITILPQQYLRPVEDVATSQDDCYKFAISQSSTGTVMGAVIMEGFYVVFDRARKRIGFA
Chain of purified human autoBACE-2 (Q9Y5Z0 63-473): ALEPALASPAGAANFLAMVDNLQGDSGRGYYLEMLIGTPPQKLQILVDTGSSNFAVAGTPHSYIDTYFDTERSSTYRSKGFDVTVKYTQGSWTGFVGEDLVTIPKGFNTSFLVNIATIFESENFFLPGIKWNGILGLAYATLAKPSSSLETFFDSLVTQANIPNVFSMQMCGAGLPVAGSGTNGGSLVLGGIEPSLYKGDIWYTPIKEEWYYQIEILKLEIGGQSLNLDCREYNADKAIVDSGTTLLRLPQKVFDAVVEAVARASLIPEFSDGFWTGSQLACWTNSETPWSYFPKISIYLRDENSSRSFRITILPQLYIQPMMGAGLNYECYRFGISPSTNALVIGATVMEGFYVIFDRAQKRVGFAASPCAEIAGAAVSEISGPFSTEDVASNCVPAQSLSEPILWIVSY

In the case of `CN1C(=N)N[C@](C)(c2cc(Nc3cccc4c3OC(F)(F)O4)ccc2F)CS1(=O)=O` [103 (Scheme 18), reference compound], the Ki in test [1] (setting [3]) was found to be 42 nM. Consider `COc1ccccc1Nc1cccc([C@]2(C)CS(=O)(=O)N(C)C(=N)N2)c1` [103a (Table IXa), reference compound], for which, in test [1] (setting [3]), the Ki was found to be 69 nM. For `CN1C(=N)N[C@](C)(c2cccc(Nc3ccccc3C#N)n2)CS1(=O)=O` [103b (Table IXa), reference compound], in test [1] (setting [3]), the Ki is 514 nM. On the same count and under the same terms, with `COc1ccccc1Nc1cccc([C@]2(C)CS(=O)(=O)N(C)C(=N)N2)n1` [162 (Scheme 40), reference compound] the figure was 3760 nM; with `CN1C(=N)N[C@](C)(c2cccc(Nc3cccc4c3OC(F)(F)O4)n2)CS1(=O)=O` [163 (Table XXI), reference compound], 4700 nM; with `CN1C(=N)N[C@](C)(c2cccc(Nc3ncccc3C#N)n2)CS1(=O)=O` [164 (Table XXI), reference compound], 508 nM.

As to `COc1cccnc1Nc1cccc([C@]2(C)CS(=O)(=O)N(C)C(=N)N2)n1` [165 (as listed on page 224), reference compound], the Ki in test [1] (setting [3]) was 2590 nM. `COc1cccnc1Nc1cc([C@]2(C)CS(=O)(=O)N(C)C(=N)N2)ccn1` [166 (Table XXI), reference compound]: the Ki in test [1] (setting [3]) amounted to 41 nM.

As for `COc1ccccc1Nc1cc([C@]2(C)CS(=O)(=O)N(C)C(=N)N2)ccn1` [167 (Table XXI), reference compound], in test [1] (setting [3]), the Ki stood at 344 nM. On to `CN1C(=N)N[C@](C)(c2cc(Nc3nccc4cc(Cl)cnc34)ccc2F)CS1(=O)=O` [Example 1, 3-chloro-N-{4-fluoro-3-[(5R)-3-imino-2,5-dimethyl-1,1-dioxido-1,2,4-thiadiazinan-5-yl]phenyl}-1,7-naphthyridin-8-amine], for which the Ki in test [1] (setting [4]) is 1.2 nM; in test [2], 0.22 nM. Turning to `CN1C(=N)N[C@](C)(c2cc(Nc3nccc4cc(Br)cnc34)ccc2F)CS1(=O)=O` [Example 2, 3-bromo-N-{4-fluoro-3-[(5R)-3-imino-2,5-dimethyl-1,1-dioxido-1,2,4-thiadiazinan-5-yl]phenyl}-1,7-naphthyridin-8-amine], the values for the Ki in test [1] (setting [4]) and in test [2] were 1.5 nM and 0.38 nM, respectively. For `CN1C(=N)N[C@](C)(c2cc(Nc3ncnc4cc(Br)cnc34)ccc2F)CS1(=O)=O` [Example 3, 7-bromo-N-{4-fluoro-3-[(5R)-3-imino-2,5-dimethyl-1,1-dioxido-1,2,4-thiadiazinan-5-yl]phenyl}pyrido[3,2-d]pyrimidin-4-amine] the same measures were 2.8 nM and 0.81 nM.

Take `COc1cnc2c(Nc3cc([C@]4(C)CS(=O)(=O)N(C)C(=N)N4)c(F)cn3)nccc2c1` [Example 5, N-{5-fluoro-4-[(5R)-3-imino-2,5-dimethyl-1,1-dioxido-1,2,4-thiadiazinan-5-yl]pyridin-2-yl}-3-methoxy-1,7-naphthyridin-8-amine]: the Ki in test [1] (setting [4]) was 16.2 nM; in test [2], 4.5 nM.

For the compound `COc1cnc2c(Nc3ccc(F)c([C@]4(C)CS(=O)(=O)N(C)C(=N)N4)c3)ncnc2n1` [Example 13, N-{4-fluoro-3-[(5R)-3-imino-2,5-dimethyl-1,1-dioxido-1,2,4-thiadiazinan-5-yl]phenyl}-7-methoxypteridin-4-amine], the inhibition constant Ki is 10.6 nM in test [1] (setting [4]) and 15.4 nM in test [2]. On to `CN1C(=N)N[C@](C)(c2cc(N[C@@H]3CCc4ncc(Cl)cc43)ccc2F)CS1(=O)=O` [Example 15, (R)-5-(5-(((R)-3-chloro-6,7-dihydro-5H-cyc1openta[b]pyridin-5-yl)amino)-2-fluorophenyl)-3-imino-2,5-dimethyl-1,2,4-thiadiazinane 1,1-dioxide], for which the Ki was 41.2 nM in test [1] (setting [4]) and 124 nM in test [2]. Turning to `CN1C(=N)N[C@](C)(c2cc(N[C@@H]3CCc4ncc(C(F)(F)F)cc43)ccc2F)CS1(=O)=O` [Example 16, (R)-5-(2-fluoro-5-(((R)-3-(trifluoromethyl)-6,7-dihydro-5H-cyclopenta[b]pyridin-5-yl)amino)phenyl)-3-imino-2,5-dimethyl-1,2,4-thiadiazinane 1,1-dioxide], the Ki is 57.3 nM in test [1] (setting [4]) and 242 nM in test [2]. For the compound `CN1C(=N)N[C@](C)(c2cc(N[C@H]3CCc4cc(Cl)ccc43)ccc2F)CS1(=O)=O` [Example 17, (R)-5-(5-(((S)-5-chloro-2,3-dihydro-1H-inden-1-yl)amino)-2-fluorophenyl)-3-imino-2,5-dimethyl-1,2,4-thiadiazinane 1,1-dioxide], the Ki in test [1] (setting [4]) is 10.2 nM; in test [2], 16.6 nM. On to `CN1C(=N)N[C@](C)(c2cc(N[C@H]3CCc4cc(C#N)cnc43)ccc2F)CS1(=O)=O` [Example 18, (S)-7-((4-fluoro-3-((R)-3-imino-2,5-dimethyl-1,1-dioxido-1,2,4-thiadiazinan-5-yl)phenyl)amino)-6,7-dihydro-5H-cyclopenta[b]pyridine-3-carbonitrile], for which the Ki in test [1] (setting [4]) is 3.1 nM; in test [2], 22.3 nM.

Regarding `CN1C(=N)N[C@](C)(c2cc(N[C@@H]3CCc4cc(C#N)cnc43)ccc2F)CS1(=O)=O` [Example 19, (R)-7-((4-fluoro-3-((R)-3-imino-2,5-dimethyl-1,1-dioxido-1,2,4-thiadiazinan-5-yl)phenyl)amino)-6,7-dihydro-5H-cyclopenta[b]pyridine-3-carbonitrile], the Ki in test [1] (setting [4]) is 81 nM; in test [2], 42.6 nM.

For `CN1C(=N)N[C@](C)(c2cc(N[C@H]3CCCc4cc(Br)cnc43)ccc2F)CS1(=O)=O` [Example 20, (R)-5-(5-(((S)-3-bromo-5,6,7,8-tetrahydroquinolin-8-yl)amino)-2-fluorophenyl)-3-imino-2,5-dimethyl-1,2,4-thiadiazinane 1,1-dioxide], the Ki in test [1] (setting [4]) was 128 nM; in test [2] it was 43.1 nM.
